Laboratory results published in ChEMBL document CHEMBL1135046, “Synthesis of an alpha-aminophosphonate nucleoside as an inhibitor of S-adenosyl-L-homocysteine hydrolase” (Bioorg Med Chem Lett, 2002).

Columns and labels:
Adenosylhomocysteinase = biological target: T1, Adenosylhomocysteinase (Rattus norvegicus, UniProt P10760); assay: (§1) Inhibition constant for the compound was determined against the recombinant rat liver AdoHyc hydrolase (MV1304/pUCSAH)
T1 sequence (P10760 whole entry): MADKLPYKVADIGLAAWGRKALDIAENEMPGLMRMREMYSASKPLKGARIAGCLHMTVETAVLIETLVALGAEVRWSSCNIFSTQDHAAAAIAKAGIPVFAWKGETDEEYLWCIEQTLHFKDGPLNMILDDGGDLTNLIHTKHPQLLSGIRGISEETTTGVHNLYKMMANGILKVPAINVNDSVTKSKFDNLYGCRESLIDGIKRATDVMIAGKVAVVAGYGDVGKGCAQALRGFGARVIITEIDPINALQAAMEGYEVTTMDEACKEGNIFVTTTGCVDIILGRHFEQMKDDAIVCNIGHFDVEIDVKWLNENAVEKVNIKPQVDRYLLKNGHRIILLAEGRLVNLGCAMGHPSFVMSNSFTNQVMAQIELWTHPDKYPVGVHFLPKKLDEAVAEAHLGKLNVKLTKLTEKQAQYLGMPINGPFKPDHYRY

[1] = biological target: T2, Adenosylhomocysteinase (Rattus norvegicus) (UniProt P10760); assay: as §1
T2 sequence (whole entry): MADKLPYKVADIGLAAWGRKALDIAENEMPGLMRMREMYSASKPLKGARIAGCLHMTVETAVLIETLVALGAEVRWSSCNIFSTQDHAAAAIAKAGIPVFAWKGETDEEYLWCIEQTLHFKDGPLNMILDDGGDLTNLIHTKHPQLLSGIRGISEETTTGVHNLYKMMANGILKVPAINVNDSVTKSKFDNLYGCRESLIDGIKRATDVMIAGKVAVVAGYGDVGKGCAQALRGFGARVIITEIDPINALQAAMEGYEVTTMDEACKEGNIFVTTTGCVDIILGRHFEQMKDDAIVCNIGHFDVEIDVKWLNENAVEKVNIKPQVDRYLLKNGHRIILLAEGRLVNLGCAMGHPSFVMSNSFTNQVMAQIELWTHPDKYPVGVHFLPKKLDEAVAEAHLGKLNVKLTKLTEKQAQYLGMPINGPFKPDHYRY

[2] = substrate: Nc1ncnc2c1ncn2[C@@H]1O[C@H](CSCC[C@H](N)C(=O)O)[C@@H](O)[C@H]1O
Description: Km for the compound was determined against the recombinant rat liver AdoHyc hydrolase (MV1304/pUCSAH)

CC(C)CSC[C@H]1OC(n2cnc3c(N)ncnc32)[C@H](O)[C@@H]1O (some centres not stated)
Ki (Adenosylhomocysteinase): 105 µM | K inact [1]: 0.0488 min⁻¹

Nc1ncnc2c1ncn2C1OC(CSCC[C@H](N)C(=O)O)[C@@H](O)[C@H]1O (stereo in doubt; form 1) [listing 1 of 2 here]
Ki (Adenosylhomocysteinase): 1090 µM

Nc1ncnc2c1ncn2C1OC(CSCC[C@H](N)C(=O)O)[C@@H](O)[C@H]1O (stereo in doubt; form 1) [listing 2 of 2 here]
K inact [1]: 0.0145 min⁻¹

Nc1ncnc2c1ncn2C1OC(CSCC[C@H](N)C(=O)O)[C@@H](O)[C@H]1O (stereo in doubt; form 2) [listing 1 of 2 here]
Ki (Adenosylhomocysteinase): 345 µM

Nc1ncnc2c1ncn2C1OC(CSCC[C@H](N)C(=O)O)[C@@H](O)[C@H]1O (stereo in doubt; form 2) [listing 2 of 2 here]
K inact [1]: 0.0049 min⁻¹

B1: Adenosylhomocysteinase (Rattus norvegicus), P10760 (protein)
chain: MADKLPYKVADIGLAAWGRKALDIAENEMPGLMRMREMYSASKPLKGARIAGCLHMTVETAVLIETLVALGAEVRWSSCNIFSTQDHAAAAIAKAGIPVFAWKGETDEEYLWCIEQTLHFKDGPLNMILDDGGDLTNLIHTKHPQLLSGIRGISEETTTGVHNLYKMMANGILKVPAINVNDSVTKSKFDNLYGCRESLIDGIKRATDVMIAGKVAVVAGYGDVGKGCAQALRGFGARVIITEIDPINALQAAMEGYEVTTMDEACKEGNIFVTTTGCVDIILGRHFEQMKDDAIVCNIGHFDVEIDVKWLNENAVEKVNIKPQVDRYLLKNGHRIILLAEGRLVNLGCAMGHPSFVMSNSFTNQVMAQIELWTHPDKYPVGVHFLPKKLDEAVAEAHLGKLNVKLTKLTEKQAQYLGMPINGPFKPDHYRY
Km [2]: 9.7 µM
